According to US20260049071A1, “PROTEIN TYROSINE KINASE INHIBITOR AND MEDICAL USE THEREOF” (BEYANG THERAPEUTICS CO., LTD., priority 2022, published 2026):

Tests used:
KDR (VEGFR2) = KDR (VEGFR2) (Homo sapiens (Human), UniProt P35968); assay: Kinase inhibition, Mobility Shift Assay (VEGFR2); format: biochemical
Protocol: (§1) This assay directly monitored the ability of compounds to inhibit kinase phosphorylation by measuring non-phosphorylated and phosphorylated substrates in kinase reactions by using Mobility Shift Assays/IMAP™ analysis.
(§2) Add the kinase and DTT to 1× kinase buffer to form a 2.5× kinase solution; transfer 10 μL of 2.5× kinase solution to a 384-well reaction plate and add 1× kinase buffer to negative control wells. Incubate the plate for 10 min at room temperature; add FAM-labeled peptides, MgCl2, ATP and other reagents to 1× kinase buffer to form a 2.5× substrate solution; transfer 10 μL of the above 2.5× substrate solution to the 384-well reaction plate; incubate the plate at 28° C. for different times, and add 25 μL of stop solution to the 384-well reaction plate to stop the reaction. Read the conversion ratio data on CaliperEZ Reader II. Convert conversion rates into inhibition ratio data.
(§3) “Min” indicates the readout of the control well without the addition of kinase; and “Max” indicates the readout of the control well with the addition of DMSO. Fit IC50 values with XLFit excel add-in version 5.4.0.8.
(§4) X indicates the log value of compound concentration, and Y indicates the inhibition ratio (% inhibition).

FLT1 (VEGFR1) = FLT1 (VEGFR1) (Homo sapiens (Human), UniProt P17948); assay: Kinase inhibition, Mobility Shift Assay (VEGFR1); format: biochemical
Protocol: as §1, §2, §3, §4

melanin = assay: Binding capacity of compounds to melanin; format: in vitro ADME; settings: Sepia officinalis (cuttlefish), melanin suspension (1 mg/mL); 1 mg/mL melanin suspension in PBS pH 7.4, 2 μM compound, 2 h at 37° C.; read-out: Fu % (percentage of free drug, not bound to melanin)
Text: Pigmented eye tissues contain melanin in intracellular melanosomes. Drugs bind to melanin to varying degrees, ranging from non-binding to extensive binding. Therefore, melanin binding is an important feature that affects drug delivery and biodistribution in the eye. The binding capacity of a compound to the melanin must be considered in the development of ophthalmic drugs.
Melanin was derived from the melanin of cuttlefish (Sepia officinalis) and was commercially available from Sigma Aldrich (St Louis, MO).
First, prepare 1 mg/mL melanin suspension with PBS (pH 7.4). As a washing step for the matrix, centrifuge the suspended particles for 5 min at 3000 rpm. Resuspend the resulting particles in a fresh PBS buffer, heat to 37° C. over continuous shaking and incubate it for 1 h. Accurately pipette 2 μL of the test stock solution (0.1 mM) into 98 μL of melanin suspension (1 mg/mL) to achieve a final incubation concentration of 2 μM. Similarly, accurately pipette 2 μL of the stock solution (0.1 mM) to 98 μL of PBS buffer (containing 0.1% BSA) as a blank control sample. Incubate the samples in a shaker (80-90 rpm) for 2 h at 37° C. Then, centrifuge the samples at room temperature. Pipette 50 μL of the supernatant and add 50 μL of precipitant (containing an internal standard). After protein precipitation of all the above samples, centrifuge the samples to collect the supernatants, dilute the supernatants with water (if necessary) and inject them for analysis. At the same time, measure the positive controls, including the high-binding compounds Sunitinib and chloroquine and the low-binding compound celecoxib. Establish an LC-MS/MS method for determining compound concentrations, and calibrate the peak area ratio of analyte/internal standard (Analyte/AIS) in the measured sample by the dilution factor to take it as an alternative concentration for the sample for data processing. The binding rate (Fh) of a compound in melanin was calculated as: […]
Ctest was the concentration of the compound in the melanin-incubated sample or the peak area ratio of the test compound to the internal standard. Ccontrol was the concentration of the compound in the blank control sample or the peak area ratio of the test compound to the internal standard. Percentage of free drug (Fu %)=100−Fb The binding rates of the compounds of the present invention to melanin are shown in the table below: […]

EGFR = EGFR (Homo sapiens (Human), UniProt P00533); assay: Kinase inhibition, Mobility Shift Assay (EGFR); format: biochemical
Protocol: as §1, §2, §3, §4

FLT4 (VEGFR3) = FLT4 (VEGFR3) (Homo sapiens (Human), UniProt P35916); assay: Kinase inhibition, Mobility Shift Assay (VEGFR3); format: biochemical
Protocol: as §1, §2, §3, §4

Sequence of EGFR (P00533 25-1210): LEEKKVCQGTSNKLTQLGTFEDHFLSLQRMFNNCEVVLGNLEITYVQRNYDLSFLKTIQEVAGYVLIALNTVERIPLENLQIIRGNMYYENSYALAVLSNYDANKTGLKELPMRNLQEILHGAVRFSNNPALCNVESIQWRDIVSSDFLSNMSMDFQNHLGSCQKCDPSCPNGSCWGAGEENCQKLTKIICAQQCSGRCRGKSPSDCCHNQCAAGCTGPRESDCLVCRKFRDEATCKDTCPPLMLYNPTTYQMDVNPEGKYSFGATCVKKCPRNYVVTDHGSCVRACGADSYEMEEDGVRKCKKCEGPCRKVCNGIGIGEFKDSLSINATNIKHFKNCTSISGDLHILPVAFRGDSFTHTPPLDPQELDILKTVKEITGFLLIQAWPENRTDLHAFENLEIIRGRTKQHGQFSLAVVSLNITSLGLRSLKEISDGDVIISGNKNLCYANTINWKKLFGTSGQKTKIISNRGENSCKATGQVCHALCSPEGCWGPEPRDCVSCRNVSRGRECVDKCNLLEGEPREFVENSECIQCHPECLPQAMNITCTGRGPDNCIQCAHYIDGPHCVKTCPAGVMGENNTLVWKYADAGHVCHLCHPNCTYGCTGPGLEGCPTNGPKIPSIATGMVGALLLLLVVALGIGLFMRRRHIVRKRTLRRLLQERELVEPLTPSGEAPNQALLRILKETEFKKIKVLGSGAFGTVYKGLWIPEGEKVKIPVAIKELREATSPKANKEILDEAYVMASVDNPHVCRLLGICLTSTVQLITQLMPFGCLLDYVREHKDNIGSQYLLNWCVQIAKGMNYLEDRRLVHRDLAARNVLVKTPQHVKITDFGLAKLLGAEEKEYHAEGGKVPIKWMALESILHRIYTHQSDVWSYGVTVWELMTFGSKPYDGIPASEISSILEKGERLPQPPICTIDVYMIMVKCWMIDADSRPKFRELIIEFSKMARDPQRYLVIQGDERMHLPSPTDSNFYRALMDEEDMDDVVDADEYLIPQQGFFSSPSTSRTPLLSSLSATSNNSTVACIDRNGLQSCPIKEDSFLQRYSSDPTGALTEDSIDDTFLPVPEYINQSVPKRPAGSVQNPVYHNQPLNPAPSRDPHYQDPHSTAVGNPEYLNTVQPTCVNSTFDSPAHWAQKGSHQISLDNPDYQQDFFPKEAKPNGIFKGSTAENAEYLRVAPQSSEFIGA
Sequence of FLT4 (VEGFR3) (P35916 25-1363): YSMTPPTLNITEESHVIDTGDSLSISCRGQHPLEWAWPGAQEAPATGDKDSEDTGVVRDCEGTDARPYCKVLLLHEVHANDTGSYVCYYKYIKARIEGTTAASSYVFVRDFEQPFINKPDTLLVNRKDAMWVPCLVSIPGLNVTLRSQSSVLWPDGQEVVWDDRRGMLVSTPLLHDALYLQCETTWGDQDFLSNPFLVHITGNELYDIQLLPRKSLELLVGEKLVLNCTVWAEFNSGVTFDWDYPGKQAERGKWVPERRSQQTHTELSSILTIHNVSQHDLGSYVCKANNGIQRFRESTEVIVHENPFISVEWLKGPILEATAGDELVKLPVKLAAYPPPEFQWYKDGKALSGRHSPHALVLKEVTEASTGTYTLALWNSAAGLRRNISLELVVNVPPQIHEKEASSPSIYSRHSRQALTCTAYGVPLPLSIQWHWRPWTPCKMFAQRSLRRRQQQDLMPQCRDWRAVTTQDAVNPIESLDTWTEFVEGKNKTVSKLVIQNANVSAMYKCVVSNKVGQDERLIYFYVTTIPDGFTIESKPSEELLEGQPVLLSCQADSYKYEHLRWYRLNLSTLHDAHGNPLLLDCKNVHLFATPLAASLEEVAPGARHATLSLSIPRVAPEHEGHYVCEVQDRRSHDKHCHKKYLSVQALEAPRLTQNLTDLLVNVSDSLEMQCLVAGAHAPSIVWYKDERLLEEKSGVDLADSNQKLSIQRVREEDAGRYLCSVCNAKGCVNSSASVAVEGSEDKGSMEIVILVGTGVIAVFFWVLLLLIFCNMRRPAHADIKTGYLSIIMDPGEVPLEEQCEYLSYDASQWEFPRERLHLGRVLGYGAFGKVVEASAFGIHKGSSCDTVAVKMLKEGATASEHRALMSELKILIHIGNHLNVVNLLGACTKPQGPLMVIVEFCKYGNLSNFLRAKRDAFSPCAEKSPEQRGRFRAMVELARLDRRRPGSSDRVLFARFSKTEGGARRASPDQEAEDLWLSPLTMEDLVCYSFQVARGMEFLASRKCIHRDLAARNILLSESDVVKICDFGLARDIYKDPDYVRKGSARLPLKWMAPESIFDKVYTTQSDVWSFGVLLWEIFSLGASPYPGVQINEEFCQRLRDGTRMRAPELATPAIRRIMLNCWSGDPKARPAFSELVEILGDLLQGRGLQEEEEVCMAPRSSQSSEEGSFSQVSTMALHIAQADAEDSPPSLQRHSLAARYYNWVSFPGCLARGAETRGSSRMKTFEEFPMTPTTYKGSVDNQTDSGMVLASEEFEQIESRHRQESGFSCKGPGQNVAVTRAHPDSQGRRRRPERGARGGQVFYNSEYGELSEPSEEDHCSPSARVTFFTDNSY
Sequence of FLT1 (VEGFR1) (P17948 27-1338): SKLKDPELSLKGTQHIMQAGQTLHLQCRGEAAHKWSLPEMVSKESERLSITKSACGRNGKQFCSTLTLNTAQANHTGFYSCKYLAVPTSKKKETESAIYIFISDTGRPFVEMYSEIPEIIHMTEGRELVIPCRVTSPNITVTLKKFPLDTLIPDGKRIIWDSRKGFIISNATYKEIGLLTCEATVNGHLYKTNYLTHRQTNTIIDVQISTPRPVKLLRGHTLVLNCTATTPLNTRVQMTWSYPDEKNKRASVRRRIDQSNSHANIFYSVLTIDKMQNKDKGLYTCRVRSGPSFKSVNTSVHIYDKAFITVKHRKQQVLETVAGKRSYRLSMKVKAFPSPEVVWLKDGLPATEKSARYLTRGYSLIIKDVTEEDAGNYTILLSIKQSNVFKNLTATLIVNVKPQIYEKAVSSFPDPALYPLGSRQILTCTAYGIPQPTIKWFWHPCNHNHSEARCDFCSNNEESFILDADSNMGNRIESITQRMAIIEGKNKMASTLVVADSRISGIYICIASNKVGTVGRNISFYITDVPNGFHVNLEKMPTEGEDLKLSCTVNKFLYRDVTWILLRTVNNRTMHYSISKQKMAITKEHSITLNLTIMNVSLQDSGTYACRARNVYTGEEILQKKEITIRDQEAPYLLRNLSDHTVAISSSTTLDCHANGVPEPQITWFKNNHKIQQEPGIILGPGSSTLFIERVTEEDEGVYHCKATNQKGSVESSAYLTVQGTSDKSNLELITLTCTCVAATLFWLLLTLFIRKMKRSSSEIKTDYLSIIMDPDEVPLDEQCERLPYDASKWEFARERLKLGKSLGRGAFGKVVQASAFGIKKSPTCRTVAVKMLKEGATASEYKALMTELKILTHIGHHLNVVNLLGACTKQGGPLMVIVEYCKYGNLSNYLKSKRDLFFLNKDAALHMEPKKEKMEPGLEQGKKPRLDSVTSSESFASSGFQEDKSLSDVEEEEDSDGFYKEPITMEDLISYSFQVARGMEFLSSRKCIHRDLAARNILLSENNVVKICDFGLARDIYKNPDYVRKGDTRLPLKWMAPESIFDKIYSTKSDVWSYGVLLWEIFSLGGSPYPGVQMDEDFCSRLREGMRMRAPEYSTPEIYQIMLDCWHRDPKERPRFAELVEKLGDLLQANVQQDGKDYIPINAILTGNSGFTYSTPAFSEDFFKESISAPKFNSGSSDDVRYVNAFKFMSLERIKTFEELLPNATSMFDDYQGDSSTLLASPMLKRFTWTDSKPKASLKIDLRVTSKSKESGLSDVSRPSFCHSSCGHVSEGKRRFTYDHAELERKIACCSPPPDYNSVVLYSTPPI
Sequence of KDR (VEGFR2) (P35968 790-1356): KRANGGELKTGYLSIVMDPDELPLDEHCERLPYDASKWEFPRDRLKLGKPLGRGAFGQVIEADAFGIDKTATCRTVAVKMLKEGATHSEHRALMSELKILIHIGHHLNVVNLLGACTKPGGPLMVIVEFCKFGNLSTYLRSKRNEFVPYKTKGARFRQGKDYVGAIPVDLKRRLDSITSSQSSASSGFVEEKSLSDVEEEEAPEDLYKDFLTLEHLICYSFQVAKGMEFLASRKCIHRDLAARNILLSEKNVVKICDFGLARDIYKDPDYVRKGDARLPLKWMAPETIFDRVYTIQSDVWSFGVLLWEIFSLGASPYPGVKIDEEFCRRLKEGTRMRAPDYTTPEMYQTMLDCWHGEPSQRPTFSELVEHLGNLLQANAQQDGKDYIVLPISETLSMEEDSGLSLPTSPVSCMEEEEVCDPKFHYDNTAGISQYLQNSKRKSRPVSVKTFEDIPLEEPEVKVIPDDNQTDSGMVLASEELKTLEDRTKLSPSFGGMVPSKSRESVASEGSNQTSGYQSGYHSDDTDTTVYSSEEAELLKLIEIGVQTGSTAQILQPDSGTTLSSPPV

IC50 (KDR (VEGFR2)) [nM]	IC50 (FLT1 (VEGFR1)) [nM]	fraction unbound at 2 h, 2 μM (melanin)	IC50 (EGFR) [nM]	IC50 (FLT4 (VEGFR3)) [nM]	SMILES
≤ 1	≤ 1	0.01 to 0.05	–	–	CNC(=O)c1ccccc1Sc1ccc2c(/C=C/c3ccc(OCC4CCCN4C)cn3)n[nH]c2c1 (centres unmarked) [Compound I-2, N-methyl-2-({3-[(E)-2-{5-[(1-methylpyrrolidin-2-yl)methoxy]pyridin-2-yl}vinyl]-1H-indazol-6-yl}thio)benzamide]
1 to 10	1 to 10	–	6000 to 60000	≤ 1	CNC(=O)c1ccccc1Sc1ccc2c(/C=C/c3ccc(O)cn3)n[nH]c2c1 [Compound I-10, 2-({3-[(E)-2-(5-hydroxypyridin-2-yl)vinyl]-1H-indazol-6-yl}thio)-N-methylbenzamide]
10 to 100	10 to 100	–	6000 to 60000	10 to 100	CNC(=O)c1ccccc1Sc1ccc2c(C#Cc3cccc(OCCN4CCCC4)n3)n[nH]c2c1 [Compound I-24, N-methyl-2-{[3-(2-{6-[2-(pyrrolidin-1-yl)ethoxy]pyridin-2-yl}ethynyl)-1H-indazol-6-yl]thio}benzamide]
> 100	> 100	–	6000 to 60000	> 100	CNC(=O)c1ccccc1Sc1ccc2c(Nc3ccc(OCCN4CCCC4)cn3)n[nH]c2c1 [Compound I-30, N-methyl-2-{[3-({5-[2-(pyrrolidin-1-yl)ethoxy]pyridin-2-yl}amino)-1H-indazol-6-yl]thio}benzamide]
≤ 1	≤ 1	0.01 to 0.05	–	–	CNC(=O)c1ccccc1Sc1ccc2c(/C=C/c3ccc(OC[C@H]4CCN(C)C4)cn3)n[nH]c2c1 [Compound I-37, N-methyl-2-({3-[(E)-2-(5-{[(3S)-1-methylpyrrolidin-3-yl]methoxy}pyridin-2-yl)vinyl]-1H-indazol-6-yl}thio)benzamide]
–	–	> 0.05	–	–	O=C(NC1CC1)c1ccccc1Sc1ccc2c(/C=C/c3ccc(OCCN4CCCCC4)cn3)n[nH]c2c1 [Compound I-53, N-cyclopropyl-2-({3-[(E)-2-{5-[2-(piperidin-1-yl)ethoxy]pyridin-2-yl}vinyl]-1H-indazol-6-yl}thio)benzamide]
1 to 10	–	0.01 to 0.05	6000 to 60000	–	CCNC(=O)c1ccccc1Sc1ccc2c(/C=C/c3ccc(CN4CCCC4)cn3)n[nH]c2c1 [Compound I-73, N-ethyl-2-({3-[(E)-2-{5-[(pyrrolidin-1-yl)methyl]pyridin-2-yl}vinyl]-1H-indazol-6-yl}thio)benzamide]
1 to 10	–	> 0.05	600 to 6000	–	CNC(=O)c1cccc(F)c1Sc1ccc2c(/C=C/c3cnn(CCCN4CCCC4)c3)n[nH]c2c1 [Compound I-76, 3-fluoro-N-methyl-2-({3-[(E)-2-{1-[3-(pyrrolidin-1-yl)propyl]-1H-pyrazol-4-yl}vinyl]-1H-indazol-6-yl}thio)benzamide]
1 to 10	–	0.01 to 0.05	6000 to 60000	–	CNC(=O)c1ccc(F)cc1Sc1ccc2c(/C=C/c3ccc(CN4CCCC4)cn3)n[nH]c2c1 [Compound I-94, 4-fluoro-N-methyl-2-({3-[(E)-2-{5-[(pyrrolidin-1-yl)methyl]pyridin-2-yl}vinyl]-1H-indazol-6-yl}thio)benzamide]

More lines, now with the values behind:

SMILES	IC50 (KDR (VEGFR2)) [nM]	IC50 (FLT1 (VEGFR1)) [nM]	fraction unbound at 2 h, 2 μM (melanin)	IC50 (EGFR) [nM]	IC50 (FLT4 (VEGFR3)) [nM]
CNC(=O)c1ccccc1Sc1ccc2c(/C=C/c3ccc(OCC4CCNC4)cn3)n[nH]c2c1 (centres unmarked) [Compound I-7]	–	≤ 1	> 0.05	–	–
CNC(=O)c1ccccc1Sc1ccn2c(/C=C/c3ccccn3)ncc2c1 [Compound I-27, N-methyl-2-({3-[(E)-2-(pyridin-2-yl)vinyl]imidazo[1,5-a]pyridin-7-yl}thio)benzamide]	> 100	> 100	–	6000 to 60000	> 100
O=C(NC1CC1)c1cccc(F)c1Sc1ccc2c(/C=C/c3cnn(CCCN4CCCC4)c3)n[nH]c2c1 [Compound I-44, N-cyclopropyl-3-fluoro-2-({3-[(E)-2-{1-[3-(pyrrolidin-1-yl)propyl]-1H-pyrazol-4-yl}vinyl]-1H-indazol-6-yl}thio)benzamide]	–	–	0.01 to 0.05	–	–
CN(C)CCOc1ccc(/C=C/c2n[nH]c3cc(Sc4ccccc4C(=O)NC4CC4)ccc23)nc1 [Compound I-51, N-cyclopropyl-2-({3-[(E)-2-{5-[2-(dimethylamino)ethoxy]pyridin-2-yl}vinyl]-1H-indazol-6-yl}thio)benzamide]	–	–	0.01 to 0.05	–	–
CCN(C)CCOc1ccc(/C=C/c2n[nH]c3cc(Sc4ccccc4C(=O)NC4CC4)ccc23)nc1 [Compound I-52, N-cyclopropyl-2-({3-[(E)-2-{5-[2-(diethylamino)ethoxy]pyridin-2-yl}vinyl]-1H-indazol-6-yl}thio)benzoyl]	–	–	> 0.05	–	–
O=C(NC1CC1)c1ccc(F)cc1Sc1ccc2c(/C=C/c3ccc(CN4CCCC4)cn3)n[nH]c2c1 [Compound I-79, N-cyclopropyl-4-fluoro-2-({3-[(E)-2-{5-[(pyrrolidin-1-yl)methyl]pyridin-2-yl}vinyl]-1H-indazol-6-yl}thio)benzamide]	≤ 1	–	> 0.05	6000 to 60000	–
O=C(NC1CC1)c1ccccc1Nc1ccc2c(/C=C/c3ccc(CN4CCCC4)cn3)n[nH]c2c1 [Compound I-82, N-cyclopropyl-2-({3-[(E)-2-{5-[(pyrrolidin-1-yl)methyl]pyridin-2-yl}vinyl]-1H-indazol-6-yl}amino)benzamide]	≤ 1	–	0.01 to 0.05	6000 to 60000	–
CCN(CC)Cc1ccc(/C=C/c2n[nH]c3cc(Sc4c(F)cccc4C(=O)NC)ccc23)nc1 [Compound I-91, 2-({3-[(E)-2-{5-[(diethylamino)methyl]pyridin-2-yl}vinyl]-1H-indazol-6-yl}thio)-3-fluoro-N-methylbenzamide]	1 to 10	–	0.01 to 0.05	6000 to 60000	–
CCN(CC)Cc1ccc(/C=C/c2n[nH]c3cc(Sc4ccc(F)cc4C(=O)NC)ccc23)nc1 [Compound I-93, 2-({3-[(E)-2-{5-[(diethylamino)methyl]pyridin-2-yl}vinyl]-1H-indazol-6-yl}thio)-5-fluoro-N-methylbenzamide]	1 to 10	–	0.01 to 0.05	6000 to 60000	–
CCN(CC)Cc1ccc(/C=C/c2n[nH]c3cc(Sc4ccccc4C(=O)NCCF)ccc23)nc1 [Compound I-98, 2-({3-[(E)-2-{5-(diethylamino)methyl]pyridin-2-ylvinyl]-1H-indazol-6-yl}thio)-N-(2-fluoroethyl)benzamide]	1 to 10	–	> 0.05	6000 to 60000	–
CCN(CC)Cc1ccc(/C=C/c2n[nH]c3cc(Sc4ccccc4C(=O)NCC(F)F)ccc23)nc1 [Compound I-99, 2-({3-[(E)-2-{5-[(diethylamino)methyl]pyridin-2-yl}vinyl]-1H-indazol-6-yl}thio)-N-(2,2-difluoroethyl)benzamide]	1 to 10	–	> 0.05	6000 to 60000	–
O=C(NC1CC1)c1cc(F)ccc1Sc1ccc2c(/C=C/c3cc(CCCN4CCCC4)ccn3)n[nH]c2c1 [Compound I-119, N-cyclopropyl-5-fluoro-2-({3-[(E)-2-{4-[3-(pyrrolidin-1-yl)propyl]pyridin-2-yl}vinyl]-1H-indazol-6-yl}thio)benzamide]	≤ 1	1 to 10	–	> 60000	10 to 100
